Results taken from US9206136B2, “Pyrazolyl-based carboxamides I” (Grünenthal GmbH, priority 2013, dated 2015).

Columns and labels:
[1] = biological target: T1, CRAC channel (endogenous SOC in HEK293 cells) (Homo sapiens, UniProt Q96D31); assay: HEK Calcium Influx Assay (FLIPR); type: cell-based; conditions: 10 μM compound, thapsigargin store depletion, Ca2+ signal 9.5-10 min post-administration, read-out: % inhib. [@ 10 μM] FLIPR
T1 construct: host or cells: HEK293
Experimental: Compounds of the invention have been tested for their effects on CRAC channels according to the following or similar procedures.
The effect of compounds of the invention on intracellular [Ca^2+] was tested in the HEK293 cell line (ECACC).
HEK293 cells were cultured in DMEM/F12/Glutamax (Gibco) containing 10% FCS (Gibco), and maintained at 37° C., 5% CO2. Cell were split twice a week [3·10^6 (Mon-Thu) and 1·10^6 (Thu-Mon) cells/50 ml medium in T-175 ZK culture flasks, respectively]. 24 hours pre-experiment, cells were seeded on 96 well plates (Poly-D-Lysine 96well Black/Clear Plate, BD Biocoat REF 356640) at a density of 40,000 cells/well in DMEM/F12 (Gibco) containing 10% FCS (Gibco), and maintained at 37° C., 5% CO2.
Prior to store-depletion, cell culture medium was removed and cells were loaded with the a Ca^2+-sensitive fluorescent dye comprised within the Calcium-4-assay kit (Molecular Devices) in nominally Ca^2+-free HBS buffer (140 mM NaCl, 4 mM KCl, 0.2 mM MgCl2, 11 mM D-glucose, and 10 mM HEPES, pH 7.4) according to manufacturer's instruction for 60 min at 37° C., 5% CO2.
Passive depletion of intracellular Ca^2+-stores was then triggered by employing the SERCA inhibitor thapsigargin (2 μM final) for 10 min in the dark (rt). To prevent immediate Ca^2+-entry via the activated Store-operated channels (SOCs), cells were maintained in Ca^2+-free HBS buffer comprising 100 μM EGTA during store-depletion.
Intracellular changes in [Ca^2+] were subsequently monitored with the FLIPR device (Molecular Devices). In brief, baseline imaging post-store depletion was allowed for 1 min before adjusting the extracellular buffer to 3 mM CaCl2. Increases in intracellular [Ca^2+] due to pre-activated SOC channels were monitored for 15 min until intracellular Ca^2+ levels had declined into a steady-state. Finally, compounds were administered and Ca^2+ signals were recorded for additional 10 min.
Inhibition of endogenous SOC in HEK293 cells was quantified employing the average Ca^2+ signal measured from 9.5-10 min post-administration. Zero percent inhibition (MAX) was defined as the Ca^2+ signal recorded from wells to which DMSO-only had been added instead of compound. Hundred percent inhibition (MIN) was defined as the signal obtained from wells in which cells haven't been treated with TG prior to Ca^2+ addition and to which DMSO-only had been added instead of compound. For routine IC50 determinations of compounds, 8 concentrations of a serial dilution (1:3.16) were tested, starting off from 10 μM. Reliable IC50's could consequently be determined only, if they were at least sub 2.5-3 μM.

[2] = test system: Interleukin-2 (IL-2) production/release in Jurkat T cell line clone E6-1; assay: Jurkat IL-2 Production Assay; type: cell-based; conditions: Homo sapiens; Jurkat T cells stimulated with 15 μg/ml PHA for 22 hours; IL-2 in supernatant (AlphaLisa)
Experimental: Jurkat IL-2 Production Assay
The effect of compounds of the invention on Interleukin-2 (IL-2) production/release was tested in the Jurkat T cell line (ECACC) clone E6-1.
Jurkat T cells were cultured in DMEM/F12/Glutamax (Gibco) containing 10% FCS (Gibco), and maintained at 37° C., 5% CO2. Cells were split twice a week [5·10^6 (Mon-Thu) and 1·10^7 (Thu-Mon) cells/50 ml medium in T-175 ZK culture flasks, respectively].
Prior to experiment, cells were seeded on 96 well plates (Cellstar 96 Well; Cat No. 655180, Greiner bio-one) at a density of 5·10^5 cells/well in DMEM/F12/Glutamax (Gibco) containing 10% FCS (Gibco), and incubated for 60 min at 37° C., 5% CO2. Subsequently, compounds were added and cells were allowed to incubate for 30 min at 37° C., 5% CO2. Cells were then stimulated with 15 μg/ml Phyto-hemagglutinin (PHA; Sigma) for 22 hours at 37° C., 5% CO2.
Before sampling of the supernatants, cells were spun down (200*g/5 min/RT). The amount of IL-2 released into the supernatant was quantified with the human IL-2 AlphaLisa kit (Perkin Elmer) according to manufacturer's instructions. Luminescence proximity measurements were carried out in the Synergy H4 reader (BioTek) employing the fluorescence setting of the reader (ex: 680/30 nm; em: 620/40 nm).
Inhibition of IL-Production/Release in/from Jurkat T Cells Cells was Quantified as Follows:
Zero percent inhibition (MAX) was defined as the [IL-2] determined in supernatants derived from cells to which PHA & DMSO-only had been added instead of compound. Hundred percent inhibition (MIN) was defined as the [IL-2] determined in supernatants derived from cells that had been pre-treated with 1 μM CyclosporineA (Sigma) before the addition of 15 μg/ml PHA.
For routine IC50 determinations of compounds, 8 concentrations of a serial dilution (1:3.16) were tested, starting off from 10 μM.

T1 sequence (Q96D31 whole entry): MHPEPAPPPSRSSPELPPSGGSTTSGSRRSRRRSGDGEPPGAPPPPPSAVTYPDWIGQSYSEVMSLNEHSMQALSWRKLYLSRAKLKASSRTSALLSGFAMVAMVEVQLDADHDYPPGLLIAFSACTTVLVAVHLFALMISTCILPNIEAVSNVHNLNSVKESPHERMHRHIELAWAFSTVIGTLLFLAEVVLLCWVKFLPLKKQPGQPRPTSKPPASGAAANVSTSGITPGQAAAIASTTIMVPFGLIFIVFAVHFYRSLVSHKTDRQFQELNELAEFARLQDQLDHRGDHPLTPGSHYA

Row | SMILES | inhibition at 10 µM [1] [%] | IC50 [2] [µM]
1 | Cc1ccc(-c2nccs2)cc1-c1cc(C(=O)Nc2ccncc2F)nn1C [Example 1, N-(3-Fluoro-pyridin-4-yl)-1-methyl-5-(2-methyl-5-thiazol-2-yl-phenyl)-1H-pyrazole-3-carboxylic acid amide] | > 70 | 1 to 5
2 | Cc1ccc(-c2ncco2)cc1-c1cc(C(=O)Nc2ccncc2F)nn1C [Example 2, N-(3-Fluoro-pyridin-4-yl)-1-methyl-5-(2-methyl-5-oxazol-2-yl-phenyl)-1H-pyrazole-3-carboxylic acid amide] | 50 to 70 | –
3 | Cc1ccc(-c2nccs2)cc1-c1cc(C(=O)Nc2c(F)cccc2F)nn1C [Example 3, N-(2,6-Difluoro-phenyl)-1-methyl-5-(2-methyl-5-thiazol-2-yl-phenyl)-1H-pyrazole-3-carboxylic acid amide] | < 50 | < 0.5
4 | COc1ccc(NC(=O)c2cc(-c3cc(-c4nccs4)ccc3C)n(C)n2)cc1 [Example 4, N-(4-Methoxyphenyl)-1-methyl-5-(2-methyl-5-thiazol-2-yl-phenyl)-1H-pyrazole-3-carboxylic acid amide] | 50 to 70 | 1 to 5
5 | Cc1ccc(-c2nccs2)cc1-c1cc(C(=O)Nc2ccc(F)cc2)nn1C [Example 5, N-(4-Fluorophenyl)-1-methyl-5-(2-methyl-5-thiazol-2-yl-phenyl)-1H-pyrazole-3-carboxylic acid amide] | 50 to 70 | 1 to 5
6 | Cc1cnccc1NC(=O)c1cc(-c2cc(-c3nccs3)ccc2C)n(C)n1 [Example 6, 1-Methyl-N-(3-methyl-pyridin-4-yl)-5-(2-methyl-5-thiazol-2-yl-phenyl)-1H-pyrazole-3-carboxylic acid amide] | 50 to 70 | 1 to 5
7 | COc1ccc(-c2nccs2)cc1-c1cc(C(=O)Nc2ccncc2F)nn1C [Example 7, N-(3-Fluoro-pyridin-4-yl)-5-(2-methoxy-5-thiazol-2-yl-phenyl)-1-methyl-1H-pyrazole-3-carboxylic acid amide] | < 50 | 0.5 to 1
8 | COc1ccc(-c2nccs2)cc1-c1cc(C(=O)Nc2c(F)cccc2F)nn1C [Example 8, N-(2,6-Difluoro-phenyl)-5-(2-methoxy-5-thiazol-2-yl-phenyl)-1-methyl-1H-pyrazole-3-carboxylic acid amide] | > 70 | 0.5 to 1
9 | Cn1nc(C(=O)Nc2ccncc2F)cc1-c1cc(-c2nccs2)ccc1Cl [Example 9, 5-(2-Chloro-5-thiazol-2-yl-phenyl)-N-(3-fluoro-pyridin-4-yl)-1-methyl-1H-pyrazole-3-carboxylic acid amide] | 50 to 70 | 1 to 5
10 | Cn1nc(C(=O)Nc2c(F)cccc2F)cc1-c1cc(-c2nccs2)ccc1Cl [Example 10, 5-(2-Chloro-5-thiazol-2-yl-phenyl)-N-(2,6-difluoro-phenyl)-1-methyl-1H-pyrazole-3-carboxylic acid amide] | < 50 | < 0.5
11 | Cc1ccc(-c2ccncc2)cc1-c1cc(C(=O)Nc2ccncc2F)nn1C [Example 11, N-(3-Fluoro-pyridin-4-yl)-1-methyl-5-(2-methyl-5-pyridin-4-yl-phenyl)-1H-pyrazole-3-carboxylic acid amide] | > 70 | 1 to 5
12 | Cc1ccc(-c2ccncc2)cc1-c1cc(C(=O)Nc2c(F)cccc2F)nn1C [Example 12, N-(2,6-Difluoro-phenyl)-1-methyl-5-(2-methyl-5-pyridin-4-yl-phenyl)-1H-pyrazole-3-carboxylic acid amide] | > 70 | < 0.5
13 | Cc1ccc(-c2cncnc2)cc1-c1cc(C(=O)Nc2c(F)cccc2F)nn1C [Example 13, N-(2,6-Difluoro-phenyl)-1-methyl-5-(2-methyl-5-pyrimidin-5-yl-phenyl)-1H-pyrazole-3-carboxylic acid amide] | < 50 | < 0.5
14 | Cn1nc(C(=O)Nc2c(F)cccc2F)cc1-c1cccc(-c2nccs2)c1 [Example 14, N-(2,6-Difluoro-phenyl)-1-methyl-5-(3-thiazol-2-yl-phenyl)-1H-pyrazole-3-carboxylic acid amide] | > 70 | < 0.5
15 | COc1ccc(C2CC2)cc1-c1cc(C(=O)Nc2ccncc2F)nn1C [Example 15, 5-(5-Cyclopropyl-2-methoxy-phenyl)-N-(3-fluoro-pyridin-4-yl)-1-methyl-1H-pyrazole-3-carboxylic acid amide] | > 70 | 1 to 5
16 | COc1ccc(C2CC2)cc1-c1cc(C(=O)Nc2c(F)cccc2F)nn1C [Example 16, 5-(5-Cyclopropyl-2-methoxy-phenyl)-N-(2,6-difluoro-phenyl)-1-methyl-1H-pyrazole-3-carboxylic acid amide] | > 70 | < 0.5
17 | Cc1cnc(C2CC2)nc1-c1cc(C(=O)Nc2c(F)cccc2F)nn1C [Example 17, 5-(2-Cyclopropyl-5-methyl-pyrimidin-4-yl)-N-(2,6-difluoro-phenyl)-1-methyl-1H-pyrazole-3-carboxylic acid amide] | 50 to 70 | –
18 | Cc1ccc(-c2ncco2)cc1-c1cc(C(=O)Nc2c(F)cccc2F)nn1C [Example 18, N-(2,6-Difluoro-phenyl)-1-methyl-5-(2-methyl-5-oxazol-2-yl-phenyl)-1H-pyrazole-3-carboxylic acid amide] | < 50 | 0.5 to 1
19 | Cc1noc(-c2ccc(C)c(-c3cc(C(=O)Nc4c(F)cccc4F)nn3C)c2)n1 [Example 19, N-(2,6-Difluoro-phenyl)-1-methyl-5-[2-methyl-5-(3-methyl-[1,2,4]oxadiazol-5-yl)-phenyl]-1H-pyrazole-3-carboxylic acid amide] | < 50 | 1 to 5
20 | Cc1ccc(-c2ccnc(N)c2)cc1-c1cc(C(=O)Nc2c(F)cccc2F)nn1C [Example 20, 5-[5-(2-Amino-pyridin-4-yl)-2-methyl-phenyl]-N-(2,6-difluoro-phenyl)-1-methyl-1H-pyrazole-3-carboxylic acid amide] | 50 to 70 | 0.5 to 1
21 | Cc1ccc(C2CCOCC2)cc1-c1cc(C(=O)Nc2ccncc2F)nn1C [Example 21, N-(3-Fluoro-pyridin-4-yl)-1-methyl-5-(2-methyl-5-tetrahydro-pyran-4-yl-phenyl)-1H-pyrazole-3-carboxylic acid amide] | 50 to 70 | –
22 | Cc1c(C(=O)Nc2ccncc2F)nn(C)c1-c1cccc(-c2nccs2)c1 [Example 29, N-(3-Fluoro-pyridin-4-yl)-1,4-dimethyl-5-(3-thiazol-2-yl-phenyl)-1H-pyrazole-3-carboxylic acid amide] | > 70 | –
